# Data published in patent US9480755B2, “Pharmaceutical composition comprising dapagliflozin and cyclodextrin” (ratiopharm GmbH, priority 2011, dated 2016).
# Where two headings read alike, the source gives them in different places.
# What was measured:
# [1] = Protocol: Literatural examples indicate that the effectiveness of complex formation may be increased upon the addition of hydroxycarboxylic acids, especially citric acid in case the complex forming cyclodextrin or its complex is subject to aggregation. Often this is the case when parent cyclodextrins are applied. […] As a proof of concept, representative isotherm data were determined in the presence of citric acid (added in equimolar ratio with the pharmacon) and compared to the original dissolved concentrations (Table 2).
# [2] = deionised water; for Dissolved Dapagliflozin: 25 ± 2° C.
# Protocol: The effect of cyclodextrins on the aqueous solubility of dapagliflozin was studied in deionised water at 25±2° C. The solubilizing effect was studied by preparing samples having a cyclodextrin concentration in the range of 1 to 15 wt. %.
# The following cyclodextrins were used: • b-cyclodextrin (BCD): CYL-2518/2 (Wacker Chemie GmbH) • (2-hydroxy)propyl-b-cyclodextrin (HPBCD): E0062 (Roquette Frères) • sulfobutylether-b-cyclodextrin (SBEBCD): 47K040508 (CycloLab)
smiles,measurement,setting,value
"CCOc1ccc(Cc2cc([C@@H]3O[C@H](CO)[C@@H](O)[C@H](O)[C@H]3O)ccc2Cl)cc1 [dapagliflozin, (2S,3R,4R,5S,6R)-2-[4-chloro-3-(4-ethoxybenzyl)phenyl]-6-(hydroxymethyl)-tetrahydro-2H-pyran-3,4,5-triol]",Dissolved Dapagliflozin,[1]; HPBCD 1.0% + 28 mg citric acid (equimolar with the drug),4.1 mg/mL
same,Dissolved Dapagliflozin,[1]; HPBCD 2.5% + 28 mg citric acid (equimolar with the drug),8.1 mg/mL
same,Dissolved Dapagliflozin,[1]; HPBCD 5.0% + 28 mg citric acid (equimolar with the drug),14.3 mg/mL
same,Dissolved Dapagliflozin,[2]; BCD 0.5 wt. %,3.3 mg/mL
same,Dissolved Dapagliflozin,[2]; BCD 1.0 wt. %,4.7 mg/mL
same,Dissolved Dapagliflozin,[2]; BCD 1.5 wt. %,6.3 mg/mL
same,Dissolved Dapagliflozin,[2]; BCD 2.0 wt. %,7.7 mg/mL
same,Dissolved Dapagliflozin,[2]; HPBCD 1.0 wt. %,4.4 mg/mL
same,Dissolved Dapagliflozin,[2]; HPBCD 2.0 wt. %,7.2 mg/mL
same,Dissolved Dapagliflozin,[2]; HPBCD 2.5 wt. %,8.6 mg/mL
same,Dissolved Dapagliflozin,[2]; HPBCD 3.0 wt. %,9.7 mg/mL
same,Dissolved Dapagliflozin,[2]; HPBCD 4.0 wt. %,12.5 mg/mL
same,Dissolved Dapagliflozin,[2]; HPBCD 5.0 wt. %,14.4 mg/mL
same,Dissolved Dapagliflozin,[2]; HPBCD 10.0 wt. %,14.1 mg/mL
same,Dissolved Dapagliflozin,[2]; HPBCD 15.0 wt. %,14.0 mg/mL
same,Dissolved Dapagliflozin,[2]; HPGCD 1.0 wt. %,4.2 mg/mL
same,Dissolved Dapagliflozin,[2]; HPGCD 5.0 wt. %,11.3 mg/mL
same,Dissolved Dapagliflozin,[2]; HPGCD 10.0 wt. %,14.9 mg/mL
same,Dissolved Dapagliflozin,[2]; HPGCD 15.0 wt. %,14.4 mg/mL
same,Dissolved Dapagliflozin,[2]; SBEBCD 1.0 wt. %,3.8 mg/mL
same,Dissolved Dapagliflozin,[2]; SBEBCD 5.0 wt. %,10.7 mg/mL
same,Dissolved Dapagliflozin,[2]; SBEBCD 10.0 wt. %,13.1 mg/mL
same,Dissolved Dapagliflozin,[2]; SBEBCD 15.0 wt. %,12.8 mg/mL
same,Dissolved Dapagliflozin,[2]; no cyclodextrin,1.6 mg/mL
same,effect of the interactions with cyclodextrins on solubility,[2]; cyclodextrin-concentration dependent,significant solubility enhancement
